Reference: PubChem BioAssay AID248 (DTP/NCI, 2004)
Where “and” joins values, the source holds several entries; their conditions need not be identical. Equal entries are not always repeated. Toxic doses and inconclusive results are not listed. Rule as the data show it: active = T/C of 150% or more; inactive = T/C below 125%.

Test system: L1210 leukemia ip in BDF1 mice, survival T/C
Test: NCI In Vivo Anticancer Drug Screen. Data for tumor model L1210 Leukemia (intraperitoneal) in B6D2F1 (BDF1) mice
Details: endpoint: mean survival time, higher = longer survival
How it was run: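 Tumor cells were implanted, animals were treated, and survival was followed. The result divides the treated measurement by the vehicle-control measurement.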

[1] = dose: 100.0 mg/kg/injection, schedule: Q04DX003 (ip), vehicle: Klucel (hydroxypropylcellulose) (HPC)
[2] = dose: 200.0 mg/kg/injection, schedule: Q04DX003 (ip), vehicle: Klucel (hydroxypropylcellulose) (HPC)
[3] = dose: 400.0 mg/kg/injection, schedule: Q04DX003 (ip), vehicle: Klucel (hydroxypropylcellulose) (HPC)

Measured: T/C

COc1ccc(C2C3CC4C(OC(=O)C42)C3I)cc1 (centres undefined)
inactive: dose: 100.0 mg/kg/injection, schedule: Q01DX009 (ip), vehicle: saline with Tween-80 97 % of control | dose: 100.0 mg/kg/injection, schedule: Q04DX003 (ip), vehicle: saline with Tween-80 95 % of control | dose: 200.0 mg/kg/injection, schedule: Q01DX009 (ip), vehicle: saline with Tween-80 98 % of control | dose: 200.0 mg/kg/injection, schedule: Q04DX003 (ip), vehicle: saline with Tween-80 95 % of control | dose: 400.0 mg/kg/injection, schedule: Q01DX009 (ip), vehicle: saline with Tween-80 88 % of control | dose: 400.0 mg/kg/injection, schedule: Q04DX003 (ip), vehicle: saline with Tween-80 87 % of control

N#CSc1ccc(Nc2ccc(SC#N)cc2)cc1
inactive: dose: 12.5 mg/kg/injection, schedule: Q01DX009 (ip), vehicle: Klucel (hydroxypropylcellulose) (HPC) 95 % of control | dose: 25.0 mg/kg/injection, schedule: Q01DX009 (ip), vehicle: Klucel (hydroxypropylcellulose) (HPC) 98 % of control

CN(C)C(=O)Sc1c(Cl)cc(S(=O)(=O)F)cc1[N+](=O)[O-]
inactive: [1] 102 % of control | [2] 101 % of control | [3] 100 % of control

NC(=Nc1ccccc1)c1ccc(C(N)=Nc2ccccc2)cc1
inactive: dose: 15.0 mg/kg/injection, schedule: Q01DX Z (ip), vehicle: carboxymethylcellulose (CMC) 104 % of control | dose: 30.0 mg/kg/injection, schedule: Q01DX Z (ip), vehicle: carboxymethylcellulose (CMC) 98 % of control | dose: 60.0 mg/kg/injection, schedule: Q01DX Z (ip), vehicle: carboxymethylcellulose (CMC) 86 % of control

Cc1ccccc1N(C)C
inactive: dose: 50.0 mg/kg/injection, schedule: Q04DX002 (ip), vehicle: saline with Tween-80 106 % of control | dose: 100.0 mg/kg/injection, schedule: Q04DX002 (ip), vehicle: saline with Tween-80 98 % of control | dose: 200.0 mg/kg/injection, schedule: Q04DX002 (ip), vehicle: saline with Tween-80 92 % of control

Cc1ccc(Oc2ccc(C(=O)O)cc2)cc1
inactive: [1] 96 % of control | [2] 102 % of control | [3] 103 % of control

[CH3][Sn]([CH3])([CH3])[CH2][Sn]([CH3])([CH3])[CH3]
inactive: dose: 50.0 mg/kg/injection, schedule: Q01DX009 (ip), vehicle: saline 101 % of control | dose: 100.0 mg/kg/injection, schedule: Q01DX009 (ip), vehicle: saline 93 % of control and 103 % of control | dose: 200.0 mg/kg/injection, schedule: Q01DX009 (ip), vehicle: saline 98 % of control

CC(=O)OC1CCC(NC(=O)NCCF)CC1 (centres undefined)
inactive: dose: 100.0 mg/kg/injection, schedule: Q01DX001 (ip), vehicle: other 98 % of control | dose: 200.0 mg/kg/injection, schedule: Q01DX001 (ip), vehicle: other 104 % of control | dose: 400.0 mg/kg/injection, schedule: Q01DX001 (ip), vehicle: other 115 % of control

CS/C(N)=N\[N+](=O)[O-]
inactive: dose: 50.0 mg/kg/injection, schedule: Q01DX009 (ip), vehicle: Klucel (hydroxypropylcellulose) (HPC) 89 % of control | dose: 100.0 mg/kg/injection, schedule: Q01DX009 (ip), vehicle: Klucel (hydroxypropylcellulose) (HPC) 110 % of control | dose: 200.0 mg/kg/injection, schedule: Q01DX009 (ip), vehicle: Klucel (hydroxypropylcellulose) (HPC) 114 % of control
